Test results from patent US4454155A, “Pharmaceutical compositions containing a mono-substituted derivative of 4-phenyl-4-oxobuten-2-oic acid, and methods of using them in treating gastric and gastroduodenal ailments” (Roussel UCLAF, priority 1981, dated 1984).

Key:
[1] = test system: total acidity of the gastric juice; assay: Gastric anti-secretory activity (Shay, pylorus-ligated rats); format: in vivo, rat; conditions: 10 mg/kg, intraduodenally, male rats, 3 hours
Description: (1) Determination of the gastric anti-secretory activity
The technique used is described by H. Shay et al in Gastroenterology 5, 43 (1945).
Male rats were used, each having a weight of about 200 g (ten animals per lot), which had been without food for 48 hours but were allowed 8% glucose solution ad libitum. After the rats were slightly anesthetized with ether, the pylorus of each was ligated. At the end of the operation, different doses of the product to be tested, or in the case of the control animals a 0.5% carboxymethyl cellulose solution, were administered intraduodenally, whereupon the abdominal incision was sutured.
Three hours later, the animals were sacrificed and their stomachs removed after ligating the esophagus. The gastric juice was removed and centrifuged. The volume of gastric juice obtained was then measured and the total acidity of the gastric juice obtained was established by titrating a 100 μL sample of gastric juice to a pH of 7 with 1/10 N Sodium hydroxide aqueous solution. The total acidity was determined.
The percentage of variation of total acidity between the results from test animals and results from control animals were calculated.

[2] = test system: ulcers in the stomachs of rats; assay: Anti-ulcer activity, stress ulcer (stress and cold); format: in vivo, rat; conditions: 10 mg/kg, by esophageal tube, female rats, stress at 8° C. for two hours
Description: (2) Determination of the anti-ulcer activity
The technique consists in inducing ulcers in the stomachs of rats by stress (stress and cold). The technique used is described by E. C. Senay and R. J. Levine, Proc. Soc. Ex. Biol. 124, 1221 (1967).
Female rats of 150 g (5 animals per lot) were used which had fasted for 48 hours with water ad libitum and glucose solution for 8 hours. The animals were given the test product, or a 0.5% solution of carboxymethyl cellulose in the case of the control animals, by esophageal tube. Two hours later, the animals were wrapped in a jacket of netting. Their paws were bound and the entire unit was placed in a refrigerator at 8° C. for two hours. The rats were freed and killed with ether. Their stomachs were removed, opened along the greater curvature and examined with a binocular magnifier. The seriousness of the lesions was rated from 0 to 3 for each stomach.
The average intensity of the ulcerations was calculated for each lot of rats. The difference in the degree of ulceration between test animals and control animals was determined and calculated as a percentage.

Acute toxicity = conditions: mouse, in vivo, po; per os, mice
Description: (3) Determination of the acute toxicity
The LD50 was evaluated after administration of the product per os in mice.

Row | SMILES | Anti-secretory activity (% variation as compared with the controls), Acid Concentration [1] | Anti-ulcer activity (% variation as compared with the controls), Ulceration [2] | LD50 (Acute toxicity)
1 | COc1ccc(C(=O)C=CC(=O)O)cc1 [Example 2, 4-(4-methyoxyphenyl)-4-oxobuten-2-oic acid] | -66% | -73% | 500 mg/kg
2 | O=C(O)C=CC(=O)c1ccccc1O [Example 1, 4-(2-hydroxyphenyl)-4-oxobuten-2-oic acid] | -65% | -35% | 350 mg/kg
